Results taken from patent US20150150892A1, “METHODS AND PRODUCTS RELATED TO LUNG CANCER” (Massachusetts Institute of Technology, priority 2012, published 2015).

Tests used:
K lung tumors = assay: CC3 immunohistochemistry in K lung tumors; format: in vivo, mouse; settings: KrasLSL-G12D/wt mice, all time points assayed
Description: (§1) FIG. 4: Bortezomib induces apoptosis in KP lung tumors. (4A and 4B) H&E and CC3 immunohistochemistry staining (×200) in vehicle control- and bortezomib-treated KP (4A) and K (4B) lung tumors. (4C and 4D) quantification of CC3-positive cells in bortezomib-treated KP (4C) and K (4D) lung tumors at indicated time points. “0 hour” represents vehicle control-treated tumors. Error bars are SD (n>10 for each time point).
(§2) Mice were sacrificed by carbon dioxide asphyxiation. Lungs were inflated with 4% formalin (neutral buffered formalin), fixed overnight, and transferred to 70% ethanol. Lung lobes were embedded in paraffin and sectioned at 4 μm and stained with H&E for tumor pathologic study. For staining with anti-CC3 antibodies (#9661; Cell Signaling), lung tumor sections were dewaxed, rehydrated, and subjected to high-temperature antigen retrieval—10 minutes of boiling in a pressure cooker in 0.01 M citrate buffer, pH 6.0. Slides were stained overnight at 4° in 1:100 primary antibody. A goat anti-rabbit horseradish peroxidase-conjugated secondary antibody (Vector Laboratories) was used at 1:200 dilution, incubated for 1 hour at room temperature, followed by diaminobenzidine staining (Vector Laboratories). The number of positive cells per tumor area was quantified using Bioquant software from >10 tumors in ≧3 mice per group (2).

[1] = system: KrasLSL-G12D/wt;p53flox/flox (KP) lung tumors; assay: MicroCT lung tumor volume in KP mice; format: in vivo, mouse
Excerpt: FIG. 3: Bortezomib induces acute lung tumor regression in KrasLSL-G12D/wt;p53flox/flox (KP) mice, but not in KrasLSL-G12D/wt (K) mice. (3A and 3C) representative microCT images (n=6) of KP (3A) and K (3C) lung tumors prior to pre-treatment (D0) and 4 days (D4) after a single dose of vehicle control or bortezomib. (3 B and 3D) Quantification of tumor volume change (D4 compared with D0) in control- and bortezomib-treated mice. Each bar represents an individual tumor. P<10^−6 in KP mice (3B); P>0.05 in K mice (3D).
(§3) FIG. 5: Bortezomib increases survival in KP mice. (5A and 5B) Kaplan-Meier survival curve of vehicle control and bortezomib-treated KP (5A) and K (5B) mice. Arrows indicate weekly 1 mg/kg bortezomib regimen. (5C) quantification of lung tumor volume of control- and bortezomib-treated KP mice. From 10 weeks after Adeno-Cre infection, lungs were imaged by microCT to measure individual tumor volumes (n=4). Data points represent means of fold change and SD relative to 10 weeks (set to 1). Arrows indicate bortezomib injection. D, CC3 staining (×200) in lung tumors receiving 3 doses of control (“C”) and 1 final dose of bortezomib (“B,” left) or 4 doses of bortezomib (right). Tumors were harvested 48 hours after the last treatment (n=4).
The Massachusetts Institute of Technology (Cambridge, Mass.) Institutional Animal Care and Use Committee approved all animal studies and procedures. […]
At indicated time points, mice were scanned for 15 min under isoflurane anesthesia, using a small animal eXplore Locus microCT (GE Healthcare) at 45-μm resolution, 80 kV, with 450-mA current (47). […] Mice were imaged for 60 seconds, and signals in the lung were quantified using Xenogen software.
To understand the relevance of these findings in vivo, we examined bortezomib-mediated NF-κB inhibition in both KP and K models of lung cancer. […] Individual lung tumors were monitored using micro-computed tomography (microCT) imaging prior to treatment (D0) and 4 days post treatment (D4). […]

KP and KP^M cell lines = assay: Cell viability assay (Cell Titer Aqueous Kit); format: cell-based, mouse; settings: increasing doses, 24 hours, KP and KP^M vs 3TZ and LKR13 cells
Description: FIG. 2: Bortezomib sensitivity correlates with basal NF-κB activity in KP lung adenocarcinoma cell lines. […] 3TZ, diamond; LKR13, triangle; KP, solid lines; KPM, dashed lines. Error bars are SD (n=3). (2B) lung cancer cell lines with high basal NF-κB activity were sensitive to bortezomib. NF-κB p65 DNA-binding activity was determined by ELISA from nuclear extracts of KP cell lines and LKR13 cells (set as 1). Relative viability was measured after 5 nM bortezomib treatment, as in 2A. FIG. 17: Bay-117082 induces cell death In KP cells. […] (17B) Bay-117082 induces apoptosis in KP cells. Cells were treated with 10IJM Bay-117082 for 48 hours. […] Cell culture conditions were as described recently (30).

[2] = system: Bortezomib-resistant KP cell lines; settings: upon bortezomib treatment; viability 24 hours, colonies 7 days
Description: (12A) Relative cell viability in cell lines treated with increasing doses of Bortezomib for 24 hours. Cells lines were outgrown from Bortezomib resistant orthotopic tumors (resistant 1&2) or sensitive tumors (sensitive) as in FIG. 6C. Error bars are s.d. (n=3). (12B) Colony formation assay in Bortezomib-resistant cells. 104 cells were plated in 6-well plate and treated with indicated drug concentration. Plates were stained 7 days later with crystal violet solution. Drug-containing medium was refreshed every 4 days.
Cells were split into 96-well plates (5,000 cells per well). After 24 hours, cells were treated with bortezomib, and 24 hours later cell viability was measured by the Cell Titer Aqueous Kit (Promega) in triplicates. Vehicle control-treated cell values were set to 1 (100% viability).

KrasLSL-G12D/wt mice = assay: Kaplan-Meier survival of K mice; format: in vivo, mouse; settings: KrasLSL-G12D/wt cohort, weekly 1 mg/kg bortezomib; P=0.36
Description: To initiate lung tumors, cohorts of K or KP mice of 129svJae background were infected with 2.5×10^7 plaque-forming units of Adeno-Cre (University of Iowa) by intranasal inhalation, as described previously (2, 28). Mice were given bortezomib (LC Labs) in PBS [0.5% dimethylsulfoxide (DMSO)] at 1 mg/kg body weight i.v., as indicated. Bay-117082 (CalBiochem) was dissolved in DMSO, diluted in PBS as a fine suspension, and injected at 10 mg/kg body weight i.p., as indicated.
Using a cohort of KP mice, we treated tumor-bearing animals 8 weeks after Adeno-Cre infection with bortezomib once a week for 4 weeks (FIG. 10A).

KP lung tumors = assay: CC3 immunohistochemistry in KP lung tumors; format: in vivo, mouse
Description: as §1, §3
FIG. 18: Bay-117082 induces apoptosis in KP lung tumors. (18A), H&E and cleaved caspase 3 (CC3) immunohistochemistry staining (200×) in vehicle control and Bay-117082 treated KP lung tumors (10 mg/kg, 48 hrs). (18B) Quantification of CC3 positive cells. Error bars are s.d. (p<0.05).
as §2, with “Slides were stained overnight at 4° in 1:100 primary antibody. A goat anti-rabbit horseradish peroxidase-conjugated secondary antibody (Vector Laboratories) was used at 1:200 dilution, incubated for 1 hour at room temperature, followed by diaminobenzidine staining (Vector Laboratories).” left out

CC(C)C[C@H](NC(=O)[C@H](Cc1ccccc1)NC(=O)c1cnccn1)B(O)O [bortezomib, N-(2-pyrazine) carbonyl-L-phenylalanine-L-leucine boronic acid]
apoptotic cells in K-only tumors (K lung tumors): did not detect a substantial number of apoptotic cells
tumor response by the 4th dose ([1]; once a week for 4 weeks, 13 weeks): insensitive to treatment
tumor response after the first dose ([1]; once a week for 4 weeks, twice-weekly microCT, 10.5 weeks): rapid KP tumor regression
average decrease in tumor volume at D4 compared with D0 ([1]; single dose 1 mg/kg i.v., 10 weeks after Adeno-Cre infection, microCT): 55.4%
sensitivity in cell viability dose-response (KP and KP^M cell lines): higher sensitivity
viability and colony formation of resistant cells compared with sensitive cells [2]: higher viability and increased colony formation
survival (KrasLSL-G12D/wt mice): no improvement in survival
CC3 staining after a final dose in pretreated tumors (KP lung tumors; KP mice, 3 previous doses of bortezomib, sacrificed 48 hours after final dose): no longer demonstrated significant CC3 staining
number of apoptotic (CC3) cells (KP lung tumors; KP tumors, 48 hours after a single dose): increase in the number of apoptotic cells
time course of CC3+ cell number (KP lung tumors; KP tumors, single dose, time-course): peaked at 24 and 48 hours post treatment and diminished at 96 hours
